Where “and” joins values, the source holds several entries; their conditions need not be identical. Equal entries are not always repeated. Numbers after ± are expanded uncertainties.
Test: molar heat capacity at constant pressure
Details: 101.33 kPa, Crystal 1

O=P([O-])([O-])[O-].[Cs+].[Mn+2] [cesium manganese(II) phosphate]
molar heat capacity at constant pressure
Details	Small sample (50 mg) DSC	Vacuum adiabatic calorimetry
240.73 K	–	124.88 ± 0.75 J/K/mol
243.23 K	–	125.55 ± 0.75 J/K/mol
245.29 K	–	126.13 ± 0.83 J/K/mol
247.36 K	–	126.8 ± 0.83 J/K/mol
250 K	–	126.96 ± 0.83 J/K/mol
250.13 K	–	127.46 ± 0.83 J/K/mol
252.55 K	–	128.04 ± 0.83 J/K/mol
255.37 K	–	128.79 ± 0.83 J/K/mol
258.11 K	–	129.46 ± 0.83 J/K/mol
260 K	–	129.62 ± 0.83 J/K/mol
260.99 K	–	130.29 ± 0.83 J/K/mol
263.88 K	–	131.12 ± 0.83 J/K/mol
266.76 K	–	131.87 ± 0.83 J/K/mol
269.64 K	–	132.62 ± 0.83 J/K/mol
270 K	–	132.37 ± 0.83 J/K/mol
272.52 K	–	133.45 ± 0.83 J/K/mol
275.39 K	–	134.28 ± 0.83 J/K/mol
278.26 K	–	135.19 ± 0.83 J/K/mol
280 K	–	135.11 ± 0.83 J/K/mol
281.34 K	–	136.02 ± 0.83 J/K/mol
283.99 K	–	136.77 ± 0.83 J/K/mol
286.86 K	–	137.69 ± 0.83 J/K/mol
289.06 K	–	138.1 ± 0.83 J/K/mol
290 K	–	138.02 ± 0.83 J/K/mol
291.64 K	–	139.02 ± 0.83 J/K/mol
295.04 K	–	140.18 ± 0.91 J/K/mol
297.8 K	–	141.01 ± 0.91 J/K/mol
298.15 K	–	140.43 ± 0.91 J/K/mol
300 K	–	141.01 ± 0.91 J/K/mol
300.2 K	–	141.76 ± 0.91 J/K/mol
302.7 K	–	142.51 ± 0.91 J/K/mol
305.33 K	–	143.34 ± 0.91 J/K/mol
308.4 K	–	144.17 ± 0.91 J/K/mol
310 K	–	144.17 ± 0.91 J/K/mol
310.94 K	–	144.92 ± 0.91 J/K/mol
314 K	–	145.92 ± 0.91 J/K/mol
317.6 K	–	147 ± 0.91 J/K/mol
320 K	–	147.58 ± 0.91 J/K/mol
320.46 K	–	147.91 ± 0.91 J/K/mol
323.3 K	–	148.91 ± 0.91 J/K/mol
326.66 K	–	150.08 ± 0.91 J/K/mol
329.3 K	–	150.91 ± 0.91 J/K/mol
330 K	–	151.16 ± 0.91 J/K/mol
330.7 K	151.32 ± 7.5 J/K/mol	–
331.64 K	–	151.57 ± 0.91 J/K/mol
332.7 K	152.15 ± 8.3 J/K/mol	–
333.9 K	152.15 ± 8.3 J/K/mol	–
335.3 K	–	152.49 ± 0.91 J/K/mol
337 K	152.99 ± 8.3 J/K/mol	–
338.7 K	–	153.4 ± 0.91 J/K/mol
340 K	153.82 ± 8.3 J/K/mol	154.9 ± 1 J/K/mol
341.6 K	153.82 ± 8.3 J/K/mol	–
343.13 K	–	154.65 ± 1 J/K/mol
345 K	155.48 ± 8.3 J/K/mol	–
347.5 K	155.48 ± 8.3 J/K/mol	–
350 K	156.31 ± 8.3 J/K/mol	–
352.5 K	157.14 ± 8.3 J/K/mol	–
355 K	157.14 ± 8.3 J/K/mol	–
357.7 K	157.97 ± 8.3 J/K/mol	–
360 K	158.81 ± 8.3 J/K/mol	–
360.2 K	157.97 ± 8.3 J/K/mol	–
362.5 K	158.81 ± 8.3 J/K/mol	–
364.9 K	158.81 ± 8.3 J/K/mol	–
367.5 K	159.64 ± 8.3 J/K/mol	–
370 K	160.47 ± 8.3 J/K/mol	–
372.5 K	160.47 ± 8.3 J/K/mol	–
374.8 K	161.3 ± 8.3 J/K/mol	–
377.3 K	161.3 ± 8.3 J/K/mol	–
380 K	162.13 ± 8.3 J/K/mol	–
382.2 K	162.13 ± 8.3 J/K/mol	–
385 K	162.96 ± 8.3 J/K/mol	–
387.5 K	162.96 ± 8.3 J/K/mol	–
390 K	163.8 ± 8.3 J/K/mol	–
392.5 K	163.8 ± 8.3 J/K/mol	–
395 K	164.63 ± 8.3 J/K/mol	–
397.5 K	164.63 ± 8.3 J/K/mol	–
400 K	164.63 ± 8.3 J/K/mol	–
400.3 K	165.46 ± 8.3 J/K/mol	–
402.8 K	165.46 ± 8.3 J/K/mol	–
405.3 K	166.29 ± 8.3 J/K/mol	–
407.5 K	166.29 ± 8.3 J/K/mol	–
409.5 K	166.29 ± 8.3 J/K/mol	–
410 K	166.29 ± 8.3 J/K/mol	–
412.6 K	166.29 ± 8.3 J/K/mol	–
415 K	167.12 ± 8.3 J/K/mol	–
417.5 K	167.12 ± 8.3 J/K/mol	–
420 K	167.12 ± 8.3 J/K/mol	–
422.5 K	167.12 ± 8.3 J/K/mol	–
425 K	167.95 ± 9.1 J/K/mol	–
427.5 K	167.95 ± 9.1 J/K/mol	–
430 K	167.95 ± 9.1 J/K/mol	–
432.5 K	167.95 ± 9.1 J/K/mol	–
435 K	168.78 ± 9.1 J/K/mol	–
437.5 K	168.78 ± 9.1 J/K/mol	–
440 K	169.62 ± 9.1 J/K/mol and 168.78 ± 9.1 J/K/mol	–
442.5 K	169.62 ± 9.1 J/K/mol	–
445 K	169.62 ± 9.1 J/K/mol	–
447.5 K	169.62 ± 9.1 J/K/mol	–
450 K	170.45 ± 9.1 J/K/mol	–
452.5 K	170.45 ± 9.1 J/K/mol	–
455 K	170.45 ± 9.1 J/K/mol	–
457.5 K	170.45 ± 9.1 J/K/mol	–
460 K	171.28 ± 9.1 J/K/mol	–
462.5 K	171.28 ± 9.1 J/K/mol	–
465 K	171.28 ± 9.1 J/K/mol	–
467.5 K	171.28 ± 9.1 J/K/mol	–
469.9 K	172.11 ± 9.1 J/K/mol	–
470 K	172.11 ± 9.1 J/K/mol	–
472.5 K	172.11 ± 9.1 J/K/mol	–
475 K	172.11 ± 9.1 J/K/mol	–
477.5 K	172.11 ± 9.1 J/K/mol	–
480 K	172.94 ± 9.1 J/K/mol	–
482.5 K	172.94 ± 9.1 J/K/mol	–
485 K	172.94 ± 9.1 J/K/mol	–
487.5 K	172.94 ± 9.1 J/K/mol	–
490 K	173.77 ± 9.1 J/K/mol	–
492.5 K	173.77 ± 9.1 J/K/mol	–
495 K	173.77 ± 9.1 J/K/mol	–
497.5 K	174.6 ± 9.1 J/K/mol	–
500 K	174.6 ± 9.1 J/K/mol	–
502.5 K	174.6 ± 9.1 J/K/mol	–
505.3 K	174.6 ± 9.1 J/K/mol	–
507.5 K	175.44 ± 9.1 J/K/mol	–
510 K	175.44 ± 9.1 J/K/mol	–
512.5 K	175.44 ± 9.1 J/K/mol	–
515 K	175.44 ± 9.1 J/K/mol	–
517.5 K	176.27 ± 9.1 J/K/mol	–
520 K	176.27 ± 9.1 J/K/mol	–
522.5 K	176.27 ± 9.1 J/K/mol	–
525 K	176.27 ± 9.1 J/K/mol	–
527.5 K	177.1 ± 9.1 J/K/mol	–
530 K	177.1 ± 9.1 J/K/mol	–
532.5 K	177.1 ± 9.1 J/K/mol	–
535 K	177.1 ± 9.1 J/K/mol	–
537.5 K	177.93 ± 9.1 J/K/mol	–
540 K	177.93 ± 9.1 J/K/mol	–
542.5 K	177.93 ± 9.1 J/K/mol	–
545 K	177.93 ± 9.1 J/K/mol	–
547.5 K	178.76 ± 9.1 J/K/mol	–
550 K	178.76 ± 9.1 J/K/mol	–
552.5 K	178.76 ± 9.1 J/K/mol	–
555 K	178.76 ± 9.1 J/K/mol	–
557.5 K	179.59 ± 9.1 J/K/mol	–
560 K	179.59 ± 9.1 J/K/mol	–
562.5 K	179.59 ± 9.1 J/K/mol	–
565 K	179.59 ± 9.1 J/K/mol	–
567.5 K	180.42 ± 9.1 J/K/mol	–
570 K	180.42 ± 9.1 J/K/mol	–
572.5 K	180.42 ± 9.1 J/K/mol	–
575 K	180.42 ± 9.1 J/K/mol	–
577.5 K	181.26 ± 9.1 J/K/mol	–
580 K	181.26 ± 9.1 J/K/mol	–
582.5 K	181.26 ± 9.1 J/K/mol	–
585 K	181.26 ± 9.1 J/K/mol	–
587.5 K	182.09 ± 9.1 J/K/mol	–
590 K	182.09 ± 9.1 J/K/mol	–
592.5 K	182.09 ± 9.1 J/K/mol	–
595 K	182.09 ± 9.1 J/K/mol	–
597.5 K	182.92 ± 9.1 J/K/mol	–
600 K	182.92 ± 9.1 J/K/mol	–
602.5 K	182.92 ± 9.1 J/K/mol	–
605 K	183.75 ± 9.1 J/K/mol	–
607.5 K	183.75 ± 9.1 J/K/mol	–
610 K	183.75 ± 9.1 J/K/mol	–
612.5 K	183.75 ± 9.1 J/K/mol	–
615 K	184.58 ± 10 J/K/mol	–
617.5 K	184.58 ± 10 J/K/mol	–
620 K	184.58 ± 10 J/K/mol	–
622.4 K	184.58 ± 10 J/K/mol	–
625 K	185.41 ± 10 J/K/mol	–
627.5 K	185.41 ± 10 J/K/mol	–
630 K	185.41 ± 10 J/K/mol	–
632.5 K	186.24 ± 10 J/K/mol	–
635 K	186.24 ± 10 J/K/mol	–
637.5 K	186.24 ± 10 J/K/mol	–
640 K	186.24 ± 10 J/K/mol	–
642.5 K	186.24 ± 10 J/K/mol	–
645.1 K	187.08 ± 10 J/K/mol	–
647.5 K	187.08 ± 10 J/K/mol	–
650 K	187.08 ± 10 J/K/mol	–

Reference: the NIST ThermoML archive (doi:10.1016/j.jct.2014.06.012)
